# Reference: patent US20250059193A1, “POLYMORPHIC AND SALT FORMS OF (1S,3S)-N1-(5-(PENTAN-3-YL)PYRAZOLO[1,5-A]PYRIMIDIN-7-YL) CYCLOPENTANE-1,3-DIAMINE” (Kronos Bio, Inc., priority 2021, published 2025)
# Counter-ions that a name gives are not always drawn.
# Key:
# Assay type in all cases: physicochemical
# [1] = pH of the solubility samples
# Experimental: The pH was recorded with a Metrohm 913 PH meter, equipped with a WTW SenTix® MIC-B electrode.
# (§1) FaSSGF is Fasted State Simulated Gastric Fluid. Solubility is reported in mg/mL.
# [2] = Solubility of free base and salt forms; details: for solubility compared with the free base: physiological conditions, salt forms versus free base; for solubility at 24 h: thermodynamic from solid
# Description: as §1
# [3] = Repeat XRD of amorphous free base from slow evaporation of ethanol solution; details: product of slow evaporation of ethanol solution of form I
# Experimental: Initial attempts to generate an amorphous form of the free base were conducted by slow evaporation of a form I solution. In particular, form I was dissolved in ethanol according to the chart below and then allowed to slowly evaporate.
# [4] = Accelerated aging conditions (AAC; 40° C./75% RH), solids reanalyzed by XRPD; details: solid form by XRPD
# Experimental: (§2) Next, the resulting solids were combined with another solvent (acetonitrile (AcN) or ethanol) and the resulting mixtures were stirred at room temperature (RT). After stirring, the solids were isolated by centrifugation and part of the solids was harvested on a 96-well plate and dried under ambient conditions. The remaining part of the solids was dried under vacuum (5 mbar [i.e. 500 Pa], RT, 18 h). All solids were analyzed by XRPD, subjected to accelerated aging conditions (AAC; 40° C./75% RH) and reanalyzed by XRPD. The procedure and resulting tosylate forms are shown in the table below, wherein forms were identified by XRD.
# as §2, with “chloroform)” for “ethanol)”, “mbar,” for “mbar [i.e. 500 Pa],”, “AAC (accelerated” for “accelerated”, “conditions;” for “conditions (AAC;”, “XRPD.” for “XRPD. The procedure and resulting tosylate forms are shown in the table below, wherein forms were identified by XRD.”
# (§3) Next, the resulting solids were combined with another solvent (AcN, diethyl ether, or toluene), and the resulting mixtures were stirred at room temperature (RT). After stirring, the solids were isolated by centrifugation and part of the solids was harvested on a 96-well plate and dried under ambient conditions. The remaining part of the solids was dried under vacuum (5 mbar, RT, 18 h). All solids were analyzed by XRPD, subjected to AAC (40° C./75% RH) and reanalyzed by XRPD.
# as §3, with “(1,4-dioxane, acetonitrile, ethyl acetate),” for “(AcN, diethyl ether, or toluene),”
# as §3, with “(acetonitrile or” for “(AcN,”, “ether),” for “ether, or toluene),”
# [5] = Medium 100 mM phosphate, pH Buffer 6.8
"pH (30 min) [1, 5]","pH (2 h) [1, 5]","pH (24 h) [1, 5]","pH (30 min) ([1]; Medium FaSSGF, pH Buffer 1.6)","pH (2 h) ([1]; Medium FaSSGF, pH Buffer 1.6)","pH (24 h) ([1]; Medium FaSSGF, pH Buffer 1.6)","Solubility (2 h) [2, 5]","Solubility (24 h) [2, 5]","Solubility (2 h) ([2]; Medium FaSSGF, pH Buffer 1.6)","Solubility (24 h) ([2]; Medium FaSSGF, pH Buffer 1.6)",solubility compared with the free base [2],3 days AAC (XRPD form) [4],Structure (SMILES),other results
2.7,6.8,7.0,1.0,1.9,2.1,8.7 mg/mL,2.92 mg/mL,>129 mg/mL,>129 mg/mL,increased,,CCC(CC)c1cc(N[C@H]2CC[C@H](N)C2)n2nccc2n1 [Tosylate III],
2.1,6.7,6.8,1.6,1.6,1.5,55.5 mg/mL,38.1 mg/mL,>392 mg/mL,>392 mg/mL,increased,,CCC(CC)c1cc(N[C@H]2CC[C@H](N)C2)n2nccc2n1 [Oxalate III],
,,,,,,,,,,,,CCC(CC)c1cc(N[C@H]2CC[C@H](N)C2)n2nccc2n1 [amorphous product],XRD of amorphous product after about 45 minutes [3]: began crystalizing
,,,,,,,,,,,Form II,CCC(CC)c1cc(N[C@H]2CC[C@H](N)C2)n2nccc2n1 [Tosylate amorphous],5 days AAC (XRPD form) [4]: Form II
,,,,,,,,,,,Form III,CCC(CC)c1cc(N[C@H]2CC[C@H](N)C2)n2nccc2n1 [Fumarate II],
4.1,7.4,7.5,1.6,1.7,1.7,28.9 mg/mL,42.2 mg/mL,>380 mg/mL,>380 mg/mL,increased,Form II,CCC(CC)c1cc(N[C@H]2CC[C@H](N)C2)n2nccc2n1 [Camsylate II],5 days AAC (XRPD form) [4]: Form III
4.5,6.7,6.7,4.4,1.6,1.6,>137 mg/mL,>137 mg/mL,>127 mg/mL,>127 mg/mL,increased,,CCC(CC)c1cc(N[C@H]2CC[C@H](N)C2)n2nccc2n1 [Citrate I],
4.5,7.2,7.3,4.1,1.6,1.7,>107 mg/mL,>107 mg/mL,>48 mg/mL,>48 mg/mL,increased,,CCC(CC)c1cc(N[C@H]2CC[C@H](N)C2)n2nccc2n1 [Fumarate III],
,,,,,,,,,,,Form III,CCC(CC)c1cc(N[C@H]2CC[C@H](N)C2)n2nccc2n1 [Fumarate IV],
,,,,,,,,,,,,"CCC(CC)c1cc(N[C@H]2CC[C@H](N)C2)n2nccc2n1 [Free base I, (1S,3S)—N^1—(5-(pentan-3-yl)pyrazolo[1,5-α]pyrimidin-7-yl)cyclopentane-1,3-diamine]","pH (24 h) ([1]; Medium 50 mM phosphate, pH Buffer 1.6 as printed): 9.4; pH (24 h) ([1]; Medium FaSSGF, pH Buffer 7.4 as printed): 10.2; pH (24 h) ([1]; Medium Water): 10.1; solubility at 24 h ([2]; 50 mM phosphate buffer, pH 1.6, aqueous buffer, Medium 50 mM phosphate, pH Buffer 1.6 as printed): 9.8 mg/mL; solubility at 24 h ([2]; FaSSGF (Fasted State Simulated Gastric Fluid), pH 7.4, fassgf or other biorelevant, Medium FaSSGF, pH Buffer 7.4 as printed): 5.9 mg/mL; solubility ([2]; water): 5.9 mg/mL; solubility at 24 h ([2]; water, Medium Water): 5.1 mg/mL"
,,,,,,,,,,,Form III,CCC(CC)c1cc(N[C@H]2CC[C@H](N)C2)n2nccc2n1 [fumarate salt],
,,,,,,,,,,,Form II,CCC(CC)c1cc(N[C@H]2CC[C@H](N)C2)n2nccc2n1 [Oxalate II],5 days AAC (XRPD form) [4]: Form II
